Measured values as given in ChEMBL document CHEMBL1909046, “DrugMatrix in vitro pharmacology data”.

What was measured:
[1] = DRUGMATRIX: Calcium Channel Type L, Phenylalkylamine radioligand binding (ligand: [3H] (-)-Desmethoxyverapamil (D-888)); assay type: cell membranes, Rattus norvegicus, Wistar, Brain, Membrane; conditions: Not Active = under 50% inhibition at 10 µM
[2] = target: Mitogen-activated protein kinase 3 (Homo sapiens, UniProt P27361); assay: DRUGMATRIX: Protein Serine/Threonine Kinase, ERK1 enzyme inhibition (substrate: Myelin Basic Protein); parameters: species or system Escherichia coli; conditions: Not Active = under 50% inhibition at 10 µM
Estrogen receptor = target: T1, Estrogen receptor (Homo sapiens, UniProt P03372); conditions: sf9; further: in other assays of this panel Not Active means under 50% inhibition at 10 µM
T1 sequence (P03372 whole entry): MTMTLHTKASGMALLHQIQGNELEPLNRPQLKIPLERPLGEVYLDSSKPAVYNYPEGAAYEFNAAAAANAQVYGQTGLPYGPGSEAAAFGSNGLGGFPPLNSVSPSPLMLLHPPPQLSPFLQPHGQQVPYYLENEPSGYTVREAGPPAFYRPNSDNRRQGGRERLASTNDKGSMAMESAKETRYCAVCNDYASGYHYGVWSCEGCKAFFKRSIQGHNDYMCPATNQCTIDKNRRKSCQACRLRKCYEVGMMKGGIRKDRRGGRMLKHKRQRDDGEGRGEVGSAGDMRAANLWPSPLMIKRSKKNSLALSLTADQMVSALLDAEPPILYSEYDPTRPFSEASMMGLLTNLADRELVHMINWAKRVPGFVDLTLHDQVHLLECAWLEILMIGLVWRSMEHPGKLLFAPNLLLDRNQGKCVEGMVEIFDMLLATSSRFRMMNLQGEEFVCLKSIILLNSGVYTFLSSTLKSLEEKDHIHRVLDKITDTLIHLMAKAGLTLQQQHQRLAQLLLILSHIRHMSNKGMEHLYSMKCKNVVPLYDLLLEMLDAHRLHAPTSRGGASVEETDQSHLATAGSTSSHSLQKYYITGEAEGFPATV

[3] = DRUGMATRIX: Interleukin IL-1 radioligand binding (ligand: [125I] interleukin 1beta); assay type: cell membranes, Membrane; conditions: nih3t3; Not Active = under 50% inhibition at 10 µM
[4] = DRUGMATRIX: Potassium Channel [KATP] radioligand binding (ligand: [3H] Glyburide); assay type: cell membranes, Membrane; conditions: hit-t15; Not Active = under 50% inhibition at 10 µM
[5] = target: T2, Cholecystokinin receptor type A (Homo sapiens, UniProt P32238); assay type: cell membranes, Membrane; conditions: 1321-n1; further: in other assays of this panel Not Active means under 50% inhibition at 10 µM
T2 sequence (P32238 whole entry): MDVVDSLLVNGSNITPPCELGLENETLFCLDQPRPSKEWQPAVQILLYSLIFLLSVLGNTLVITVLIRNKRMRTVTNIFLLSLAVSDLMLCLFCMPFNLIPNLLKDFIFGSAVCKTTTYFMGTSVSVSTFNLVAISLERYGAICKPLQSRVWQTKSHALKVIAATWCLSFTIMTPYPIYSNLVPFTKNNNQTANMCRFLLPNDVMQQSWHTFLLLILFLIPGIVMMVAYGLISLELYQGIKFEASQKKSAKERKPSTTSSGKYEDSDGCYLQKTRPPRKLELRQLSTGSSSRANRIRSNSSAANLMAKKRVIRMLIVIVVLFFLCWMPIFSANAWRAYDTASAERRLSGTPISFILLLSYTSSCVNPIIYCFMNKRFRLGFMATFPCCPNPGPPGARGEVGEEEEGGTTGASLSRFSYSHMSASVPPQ

[6] = target: T3, Cysteinyl leukotriene receptor 1 (Homo sapiens, UniProt Q9Y271); assay type: cell membranes, CHO-K1, Membrane; conditions: cho-k1; further: in other assays of this panel Not Active means under 50% inhibition at 10 µM
T3 sequence (Q9Y271 whole entry): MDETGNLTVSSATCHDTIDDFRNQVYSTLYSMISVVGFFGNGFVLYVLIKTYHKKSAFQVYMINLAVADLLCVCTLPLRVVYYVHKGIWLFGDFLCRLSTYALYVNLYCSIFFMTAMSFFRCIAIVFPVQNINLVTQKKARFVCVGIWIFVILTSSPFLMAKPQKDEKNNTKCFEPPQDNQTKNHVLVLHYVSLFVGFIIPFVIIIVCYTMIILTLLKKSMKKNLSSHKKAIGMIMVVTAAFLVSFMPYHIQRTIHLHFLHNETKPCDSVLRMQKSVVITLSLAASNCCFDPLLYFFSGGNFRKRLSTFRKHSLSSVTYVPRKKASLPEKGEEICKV

Vasopressin V1a receptor = Vasopressin V1a receptor (Homo sapiens, UniProt P37288); assay type: cell membranes, Membrane; conditions: hek293; further: in other assays of this panel Not Active means under 50% inhibition at 10 µM
[7] = DRUGMATRIX: Sigma2 radioligand binding (ligand: [3H] Ifenprodil); assay type: cell membranes, Rattus norvegicus, Wistar, Brain, Membrane; conditions: Not Active = under 50% inhibition at 10 µM
Melanocortin receptor 4 = Melanocortin receptor 4 (Homo sapiens, UniProt P32245); assay type: cell membranes, Membrane; conditions: hek293; further: in other assays of this panel Not Active means under 50% inhibition at 10 µM
[8] = target: T4, 5-hydroxytryptamine receptor 2C (Homo sapiens, UniProt P28335); assay: DRUGMATRIX: Serotonin (5-Hydroxytryptamine) 5-HT2C radioligand binding (ligand: [3H] Mesulergine); assay type: cell membranes, CHO-K1, Membrane; conditions: cho-k1; Not Active = under 50% inhibition at 10 µM
T4 sequence (P28335 whole entry): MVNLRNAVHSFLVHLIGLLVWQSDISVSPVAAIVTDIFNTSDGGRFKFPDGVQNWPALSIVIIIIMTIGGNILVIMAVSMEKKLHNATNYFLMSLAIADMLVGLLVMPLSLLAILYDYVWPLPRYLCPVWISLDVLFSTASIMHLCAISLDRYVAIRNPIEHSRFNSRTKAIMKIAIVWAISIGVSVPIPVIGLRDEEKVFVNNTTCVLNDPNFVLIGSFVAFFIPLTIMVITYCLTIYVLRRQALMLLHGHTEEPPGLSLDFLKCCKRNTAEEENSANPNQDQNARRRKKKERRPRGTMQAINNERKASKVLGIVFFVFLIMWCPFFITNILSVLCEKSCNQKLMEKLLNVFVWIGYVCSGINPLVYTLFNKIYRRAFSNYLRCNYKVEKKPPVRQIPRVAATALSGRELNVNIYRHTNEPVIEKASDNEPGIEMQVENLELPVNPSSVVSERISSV

Cytochrome P450 3A4 = Cytochrome P450 3A4 (Homo sapiens, UniProt P08684); conditions: bti-tn-5b1-4; further: in other assays of this panel Not Active means under 50% inhibition at 10 µM
[9] = target: Matrix metalloproteinase-9 (Homo sapiens, UniProt P14780); assay type: cell-based
Chain of Matrix metalloproteinase-9 (P14780 whole entry): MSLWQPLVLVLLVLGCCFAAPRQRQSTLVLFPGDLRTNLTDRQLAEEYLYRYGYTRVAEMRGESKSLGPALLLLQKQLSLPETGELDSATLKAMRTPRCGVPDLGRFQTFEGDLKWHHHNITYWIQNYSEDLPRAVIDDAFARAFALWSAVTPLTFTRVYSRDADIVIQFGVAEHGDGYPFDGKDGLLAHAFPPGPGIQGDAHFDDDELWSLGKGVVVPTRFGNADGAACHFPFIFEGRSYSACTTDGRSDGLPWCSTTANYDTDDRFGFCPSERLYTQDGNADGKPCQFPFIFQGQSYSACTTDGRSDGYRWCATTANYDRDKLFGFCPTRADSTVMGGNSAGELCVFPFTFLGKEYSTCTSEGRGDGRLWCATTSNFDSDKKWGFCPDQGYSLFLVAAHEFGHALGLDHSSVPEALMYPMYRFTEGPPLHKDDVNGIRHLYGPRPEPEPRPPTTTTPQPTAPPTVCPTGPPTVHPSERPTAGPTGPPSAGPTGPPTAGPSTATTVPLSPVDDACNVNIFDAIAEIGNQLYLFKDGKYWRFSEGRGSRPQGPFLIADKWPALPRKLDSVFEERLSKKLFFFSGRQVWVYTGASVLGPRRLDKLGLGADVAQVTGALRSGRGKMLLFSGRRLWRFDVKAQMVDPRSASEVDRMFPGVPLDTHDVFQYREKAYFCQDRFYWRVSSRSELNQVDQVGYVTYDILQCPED

Chain of Cytochrome P450 3A4 (P08684 whole entry): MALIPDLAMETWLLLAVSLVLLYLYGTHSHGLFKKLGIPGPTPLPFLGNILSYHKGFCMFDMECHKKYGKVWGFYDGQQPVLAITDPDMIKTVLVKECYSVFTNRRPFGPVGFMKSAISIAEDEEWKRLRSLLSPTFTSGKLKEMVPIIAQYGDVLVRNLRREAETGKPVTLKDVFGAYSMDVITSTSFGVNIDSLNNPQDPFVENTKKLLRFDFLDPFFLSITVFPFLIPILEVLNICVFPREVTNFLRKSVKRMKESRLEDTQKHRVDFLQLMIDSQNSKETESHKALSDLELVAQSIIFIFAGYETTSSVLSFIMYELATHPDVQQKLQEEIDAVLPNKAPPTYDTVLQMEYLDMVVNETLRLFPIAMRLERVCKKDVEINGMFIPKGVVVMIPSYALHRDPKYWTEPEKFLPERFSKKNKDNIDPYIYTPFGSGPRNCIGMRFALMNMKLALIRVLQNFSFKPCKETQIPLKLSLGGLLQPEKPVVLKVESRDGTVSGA
Chain of Vasopressin V1a receptor (P37288 whole entry): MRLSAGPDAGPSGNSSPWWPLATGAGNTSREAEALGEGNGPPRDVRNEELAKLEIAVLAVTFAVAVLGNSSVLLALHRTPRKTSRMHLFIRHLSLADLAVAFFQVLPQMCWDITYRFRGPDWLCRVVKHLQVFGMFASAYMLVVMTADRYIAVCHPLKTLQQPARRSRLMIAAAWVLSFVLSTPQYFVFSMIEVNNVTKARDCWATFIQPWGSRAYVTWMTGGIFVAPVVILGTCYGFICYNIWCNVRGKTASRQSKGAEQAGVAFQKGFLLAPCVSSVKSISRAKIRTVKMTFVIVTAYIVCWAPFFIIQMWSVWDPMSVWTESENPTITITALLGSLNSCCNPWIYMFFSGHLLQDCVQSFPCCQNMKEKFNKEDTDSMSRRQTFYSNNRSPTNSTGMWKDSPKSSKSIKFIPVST
Chain of Mitogen-activated protein kinase 3 (P27361 whole entry): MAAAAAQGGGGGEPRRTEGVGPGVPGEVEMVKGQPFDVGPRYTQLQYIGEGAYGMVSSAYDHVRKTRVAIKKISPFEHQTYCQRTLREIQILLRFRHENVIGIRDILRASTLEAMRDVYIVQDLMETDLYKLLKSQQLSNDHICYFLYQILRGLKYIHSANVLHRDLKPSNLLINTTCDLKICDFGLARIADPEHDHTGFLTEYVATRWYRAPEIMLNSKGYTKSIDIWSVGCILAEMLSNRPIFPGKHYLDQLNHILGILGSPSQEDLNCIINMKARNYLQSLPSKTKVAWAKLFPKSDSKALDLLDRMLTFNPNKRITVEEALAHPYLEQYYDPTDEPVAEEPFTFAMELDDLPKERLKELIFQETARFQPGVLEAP
Chain of Melanocortin receptor 4 (P32245 whole entry): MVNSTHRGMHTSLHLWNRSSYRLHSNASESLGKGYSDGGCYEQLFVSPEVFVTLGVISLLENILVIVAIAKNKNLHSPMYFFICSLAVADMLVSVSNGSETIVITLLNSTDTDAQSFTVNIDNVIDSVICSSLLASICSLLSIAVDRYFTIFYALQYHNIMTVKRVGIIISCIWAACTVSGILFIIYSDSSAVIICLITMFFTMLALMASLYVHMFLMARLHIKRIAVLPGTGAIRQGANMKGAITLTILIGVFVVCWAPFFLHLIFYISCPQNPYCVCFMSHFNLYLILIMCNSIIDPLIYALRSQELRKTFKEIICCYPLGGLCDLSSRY

With C=C(C)[C@@H]1[C@H]2OC(=O)[C@@H]1[C@]1(O)C[C@H]3O[C@]34C(=O)O[C@H]2[C@]14C [PICROTOXININ] the IC50 [1] was “Not Active”, the Ki [1] was “Not Active” and the IC50 [2] was “Not Active”. The IC50 (Estrogen receptor) was “Not Active”, the IC50 [3] was “Not Active” and the Ki [3] was “Not Active”. For the same compound, the IC50 [4] was “Not Active”, the Ki [4] was “Not Active” and the IC50 [5] was “Not Active”. For the same compound, the IC50 [6] was “Not Active”, the IC50 (Vasopressin V1a receptor) was “Not Active” and the IC50 [7] was “Not Active”. The Ki [7] was “Not Active”, the IC50 (Melanocortin receptor 4) was “Not Active” and the IC50 [8] was “Not Active”. The IC50 (Cytochrome P450 3A4) was “Not Active”, the Ki (Cytochrome P450 3A4) was “Not Active” and the IC50 [9] was “Not Active”.

For CARBOPLATIN, the IC50 [1] was “Not Active”, the Ki [1] was “Not Active” and the IC50 [2] was “Not Active”. For the same compound, the Ki [2] was “Not Active”, the IC50 (Estrogen receptor) was “Not Active” and the Ki (Estrogen receptor) was “Not Active”. The IC50 [3] was “Not Active”, the Ki [3] was “Not Active” and the IC50 [4] was “Not Active”. For the same compound, the Ki [4] was “Not Active”, the IC50 [5] was “Not Active” and the Ki [5] was “Not Active”. For the same compound, the IC50 [6] was “Not Active”, the Ki [6] was “Not Active” and the IC50 (Vasopressin V1a receptor) was “Not Active”. For the same compound, the Ki (Vasopressin V1a receptor) was “Not Active”, the IC50 [7] was “Not Active” and the Ki [7] was “Not Active”. For the same compound, the IC50 (Melanocortin receptor 4) was “Not Active”, the Ki (Melanocortin receptor 4) was “Not Active” and the IC50 [8] was “Not Active”. The Ki [8] was “Not Active”, the IC50 (Cytochrome P450 3A4) was “Not Active” and the Ki (Cytochrome P450 3A4) was “Not Active”. For the same compound, the IC50 [9] was “Not Active” and the Ki [9] was “Not Active”.

In the case of CISPLATIN, the IC50 [1] is reported as “Not Active”, the Ki [1] is reported as “Not Active” and the IC50 ([2]; read-out: IC50) is reported as 4.62 µM. For the same compound, the IC50 (Estrogen receptor) was “Not Active”, the Ki (Estrogen receptor) was “Not Active” and the IC50 [3] was “Not Active”. The Ki [3] was “Not Active”, the IC50 [4] was “Not Active” and the Ki [4] was “Not Active”. The IC50 [5] was “Not Active”, the Ki [5] was “Not Active” and the IC50 [6] was “Not Active”. The Ki [6] was “Not Active”, the IC50 (Vasopressin V1a receptor) was “Not Active” and the Ki (Vasopressin V1a receptor) was “Not Active”. The IC50 [7] was “Not Active”, the Ki [7] was “Not Active” and the IC50 (Melanocortin receptor 4) was “Not Active”. The Ki (Melanocortin receptor 4) was “Not Active”, the IC50 [8] was “Not Active” and the Ki [8] was “Not Active”. The IC50 (Cytochrome P450 3A4) was “Not Active”, the Ki (Cytochrome P450 3A4) was “Not Active” and the IC50 [9] was “Not Active”. For the same compound, the Ki [9] was “Not Active”.

With GOLD SODIUM THIOMALATE the IC50 [1] was “Not Active”, the Ki [1] was “Not Active” and the IC50 [2] was “Not Active”. For the same compound, the Ki [2] was “Not Active”, the IC50 (Estrogen receptor) was “Not Active” and the Ki (Estrogen receptor) was “Not Active”. The IC50 [3] was “Not Active”, the Ki [3] was “Not Active” and the IC50 [4] was “Not Active”. For the same compound, the Ki [4] was “Not Active”, the IC50 [5] was “Not Active” and the Ki [5] was “Not Active”. For the same compound, the IC50 [6] was “Not Active”, the Ki [6] was “Not Active” and the IC50 (Vasopressin V1a receptor) was “Not Active”. For the same compound, the Ki (Vasopressin V1a receptor) was “Not Active”, the IC50 [7] was “Not Active” and the Ki [7] was “Not Active”. For the same compound, the IC50 (Melanocortin receptor 4) was “Not Active”, the Ki (Melanocortin receptor 4) was “Not Active” and the IC50 [8] was “Not Active”. The Ki [8] was “Not Active”, the IC50 (Cytochrome P450 3A4) was “Not Active” and the Ki (Cytochrome P450 3A4) was “Not Active”. The IC50 [9] was “Not Active” and the Ki [9] was “Not Active”.
